Laboratory results from patent publication US12473313B2, “Therapeutic compounds and methods of use thereof” (Regents of the University of Minnesota, priority 2020, dated 2025).

Tests used:
[1] = biological target: mitochondrial reactive oxygen species (mitoROS); assay: ROS-Glo Assay of superoxide dismutase activity on menadione-induced mitoROS; format: cell-based; settings: for half maximal effective concentration (EC50) for mitoROS suppression: FIG. 6, compared with mitoTEMPO
Source text: To test compounds for mitochondrial antioxidant behavior, the ROS-Glo Assay to assess superoxide dismutase activity of induced mitochondrial reactive oxygen species (mitoROS). In this assay, menadione is used to induce mitoROS production, and then a […] is used to measure the resultant hydrogen peroxide levels. A higher level of hydrogen peroxide means more dismutase activity.

[2] = test system: mitoROS in diabetic (DM) mice; assay: mitoROS in diabetic (DM) mice measured by mitoSOX Red fluorescence; format: in vivo; settings: FIG. 9
Procedure: (§1) To test compound activity against mitochondrial oxidative stress and diastolic dysfunction Mice were fed a high fat diet for 16 weeks starting at 6 weeks of age. Before treatment, fasting blood glucose (Gluc) and body weight were measured. Gluc was used to screen for diabetes mellitus (DM). Echocardiography was used to identify DD by measuring the E/e′ ratio. Treatment of compounds 58 and 94 was 1 mg/kg/day for 2 weeks. Then, E/e′ was reassessed.

[3] = test system: diabetic mice; assay: Diastolic dysfunction (E/e′ ratio by echocardiography) in high fat diet diabetic mice; format: in vivo; settings: diabetic mice (high fat diet 16 weeks), 1 mg/kg/day for 2 weeks
Procedure: as §1

[4] = Body weight and serum glucose of treated diabetic mice; format: in vivo; settings: 1 mg/kg/day for 2 weeks, versus before treatment
Procedure: as §1

[5] = test system: mice with HFpEF; settings: mice with HFpEF (Jeong et al. J Am Heart Assoc. 2016); cited from earlier work

Row | Compound | half maximal effective concentration (EC50) for mitoROS suppression [1] | diastolic dysfunction as measured by E/e′ ratio [3] | body weight [4] | also measured
1 | COc1ccc([P@TB15+](CC(=O)NC2CC(C)(C)N([O])C(C)(C)C2)(c2ccc(OC)cc2)c2ccc(OC)cc2)cc1 [compound 2, 2,2,6,6-Tetramethyl-4-[[2-(tri-4-methoxyphenyl-phosphonio)acetyl]amino]-1-piperidinyloxy Chloride] | lower EC50s for mitoROS suppression than did mitoTEMPO | – | – | –
2 | COc1ccc([P+](CCC(=O)NC2CC(C)(C)N(O)C(C)(C)C2)(c2ccc(OC)cc2)c2ccc(OC)cc2)cc1.[Br-] [compound 58, 2,2,6,6-Tetramethyl-4-[[3-(tri-4-methoxyphenylphosphonio)-propionyl]amino]-1-piperidinyloxy Bromide] | – | Diastolic dysfunction is treated | Neither serum glucose nor body weight were affected | mitoROS as measured by mitoSOX Red fluorescence [2]: able to reduces mitoROS; half maximal inhibitory concentration (IC50) ([1]; ROS-Glo assay, FIG. 5, compared with mitoTEMPO): better than that of mitoTEMPO
3 | CC1(C)CC(NC(=O)CCCCC[P+](c2ccc(F)cc2)(c2ccc(F)cc2)c2ccc(F)cc2)CC(C)(C)N1[O].[Br-] [compound 86, 2,2,6,6-Tetramethyl-4-[[6-(tri-4-fluorophenylphosphonio)-hexanoyl]amino]-1-piperidinyloxy Bromide] | lower EC50s for mitoROS suppression than did mitoTEMPO | – | – | –
4 | COc1cc(OC)c([P+](CC(=O)NC2CC(C)(C)N([O])C(C)(C)C2)(c2c(OC)cc(OC)cc2OC)c2c(OC)cc(OC)cc2OC)c(OC)c1.[Cl-] [compound 88, 2,2,6,6-Tetramethyl-4-[[2-(tri-2,4,6-trimethoxyphenyl(2-phosphonia))acetyl]amino]-1-piperidinyloxy Chloride] | lower EC50s for mitoROS suppression than did mitoTEMPO | – | – | –
5 | CC1(C)CC(NC(=O)C[P+](c2ccc(F)cc2)(c2ccc(F)cc2)c2ccc(F)cc2)CC(C)(C)N1[O].[Cl-] [compound 94, 2,2,6,6-Tetramethyl-4-[[2-(tri-4-fluorophenylphosphonio)-acetyl]amino]-1-piperidinyloxy Chloride] | – | Diastolic dysfunction is treated | did not affect | –
6 | CC1(C)CC(NC(=O)C[P+](c2ccccc2)(c2ccccc2)c2ccccc2)CC(C)(C)N1[O] [mitoTEMPO] | – | – | – | diastolic function [5]: improve diastolic function
